Experimental data: patent publication US7994211B2, “Bicyclo[2.2.1]hept-7-ylamine derivatives and their uses” (Argenta Discovery Limited, priority 2005, dated 2011)
pKi: −log10 of the molar value.

molecular target: T1, human muscarinic receptors (M3) (Homo sapiens, UniProt P20309); test: Muscarinic receptor radioligand binding assay ([3H]-NMS); settings: membranes expressing human M3 receptor, read-out: Binding potency (M3 binding potencies, Ki values)
T1 construct: purchased
Procedure: Radioligand binding studies utilising [^3H]-N-methyl scopolamine ([^3H]-NMS) and commercially available cell membranes expressing the human muscarinic receptors (M2 and M3) were used to assess the affinity of muscarinic antagonists for M2 and M3 receptors. Membranes in TRIS buffer were incubated in 96-well plates with [^3H]-NMS and M3 antagonist at various concentrations for 3 hours. Membranes and bound radioligand were then harvested by filtration and allowed to dry overnight. Scintillation fluid was then added and the bound radioligand counted using a Canberra Packard Topcount scintillation counter.

T1 sequence (P20309 whole entry): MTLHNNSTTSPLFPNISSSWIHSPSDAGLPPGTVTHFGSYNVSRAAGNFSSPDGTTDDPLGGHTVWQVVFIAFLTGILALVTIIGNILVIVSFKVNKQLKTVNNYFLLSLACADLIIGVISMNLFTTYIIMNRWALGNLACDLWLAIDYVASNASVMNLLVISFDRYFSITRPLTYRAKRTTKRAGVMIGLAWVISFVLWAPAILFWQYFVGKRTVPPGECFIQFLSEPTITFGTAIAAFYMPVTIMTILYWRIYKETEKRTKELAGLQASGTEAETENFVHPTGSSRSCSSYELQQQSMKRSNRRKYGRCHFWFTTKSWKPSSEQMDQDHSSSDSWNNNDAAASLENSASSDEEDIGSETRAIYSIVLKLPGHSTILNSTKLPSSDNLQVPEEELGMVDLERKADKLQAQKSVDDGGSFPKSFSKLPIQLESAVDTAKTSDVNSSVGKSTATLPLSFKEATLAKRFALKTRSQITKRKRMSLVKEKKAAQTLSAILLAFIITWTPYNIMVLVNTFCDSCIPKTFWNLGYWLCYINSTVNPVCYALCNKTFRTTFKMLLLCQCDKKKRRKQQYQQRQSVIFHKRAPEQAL

Row | Structure (SMILES) | pKi
1 | CN(C)C1C2CCC1C(OC(=O)Nc1ccccc1-c1ccccc1)C2 (racemic) [Example 1, (±)-anti-Biphenyl-2-yl-carbamic acid 7-dimethylamino-bicyclo[2.2.1]hept-2-yl ester] | > 9.00
2 | C[N+](C)(C)C1C2CCC1C(OC(=O)Nc1ccccc1-c1ccccc1)C2 (racemic) [Example 8, (±)-syn-[2-(Biphenyl-2-ylcarbamoyloxy)-bicyclo[2.2.1]hept-7-yl]-trimethyl-ammonium iodide] | 8.00 to 9.00
3 | CN(C)C1C2CCC1C(OC(=O)Nc1ccccc1-c1ccccc1)C2 (single isomer, unassigned) [Example 2, anti-Biphenyl-2-yl-carbamic acid 7-dimethylamino-bicyclo[2.2.1]hept-2-yl ester] | > 9.00
4 | CN(C)C1C2CCC1C(OC(=O)Nc1ccccc1-c1ccccc1)C2 (single isomer, unassigned) [Example 3, anti-Biphenyl-2-yl-carbamic acid 7-dimethylamino-bicyclo[2.2.1]hept-2-yl ester] | 8.00 to 9.00
5 | CN(C)C1C2CCC1C(OC(=O)Nc1ccccc1-c1ccccc1)C2 (single isomer, unassigned) [Example 6, syn-Biphenyl-2-yl-carbamic acid 7-dimethylamino-bicyclo[2.2.1]hept-2-yl ester] | 8.00 to 9.00
6 | CN(C)C1C2CCC1C(OC(=O)Nc1ccccc1-c1ccccc1)C2 (single isomer, unassigned) [Example 7, syn-Biphenyl-2-yl-carbamic acid 7-dimethylamino-bicyclo[2.2.1]hept-2-yl ester] | 8.00 to 9.00
7 | CN(CCCOc1ccccc1)C1C2CCC1C(OC(=O)Nc1ccccc1-c1ccccc1)C2 (single isomer, unassigned) [Example 9, anti-Biphenyl-2-yl-carbamic acid-7-[methyl-(3-phenoxy-propyl)-amino]bicyclo[2.2.1]hept-2-yl ester] | < 8.00

Second part, the molecule after the results:

Row | pKi | Structure (SMILES)
8 | < 8.00 | CN(CCCOc1ccccc1)C1C2CCC1C(OC(=O)Nc1ccccc1-c1ccccc1)C2 (single isomer, unassigned) [Example 10, anti-Biphenyl-2-yl-carbamic acid-7-[methyl-(3-phenoxy-propyl)-amino]-bicyclo[2.2.1]hept-2-yl ester]
9 | > 9.00 | C[N+](C)(CCCOc1ccccc1)C1C2CCC1C(OC(=O)Nc1ccccc1-c1ccccc1)C2 (single isomer, unassigned) [Example 11]
10 | > 9.00 | C[N+](C)(CCCOc1ccccc1)C1C2CCC1C(OC(=O)Nc1ccccc1-c1ccccc1)C2 (single isomer, unassigned) [Example 12]
11 | 8.00 to 9.00 | CN(CCCOc1ccccc1)C1C2CCC1C(OC(=O)C1c3ccccc3Oc3ccccc31)C2 [Example 34, anti-(1S,2R) 9H-Xanthene-9-carboxylic acid 7-[methyl-(3-phenoxy-propyl)-amino]-bicyclo[2.2.1]hept-2-yl ester]
12 | > 9.00 | C[N+](C)(CCCOc1ccccc1)C1C2CCC1C(OC(=O)C1c3ccccc3Oc3ccccc31)C2 [Example 36, anti-(1S,2R) Dimethyl-(3-phenoxy-propyl)-[2-(9H-xanthene-9-carbonyloxy)-bicyclo[2.2.1]hept-7-yl]-ammonium bromide]
13 | < 8.00 | C[N+](C)(CCCOc1ccccc1)C1C2CCC1C(OCC(O)(c1ccccc1)c1ccccc1)C2 [Example 40, anti-(1S,2R) 2-(2-Hydroxy-2,2-diphenyl-ethoxy)-bicyclo[2.2.1]hept-7-yl]-dimethyl-(3-phenoxy-propyl)-ammonium bromide]

molecular target: T2, human β2 adrenergic receptor (Homo sapiens, UniProt P07550); test: β-Adrenergic receptor radioligand binding assay ([125I]-Iodocyanopindolol); settings: not given
T2 construct: purchased
Procedure: Radioligand binding studies utilising [^125I]-Iodocyanopindolol and commercially available cell membranes expressing the human β2 adrenergic receptor were used to assess the affinity of antagonists for β2-adrenergic receptor. Membranes and SPA-beads were incubated with [^125I]-Iodocyanopindolol and β2 antagonist at various concentrations for 3 hours at ambient temperature in TRIS buffer. The assay was performed in 96-well plates which were read using the Wallac Microbeta counter.

T2 sequence (P07550 whole entry): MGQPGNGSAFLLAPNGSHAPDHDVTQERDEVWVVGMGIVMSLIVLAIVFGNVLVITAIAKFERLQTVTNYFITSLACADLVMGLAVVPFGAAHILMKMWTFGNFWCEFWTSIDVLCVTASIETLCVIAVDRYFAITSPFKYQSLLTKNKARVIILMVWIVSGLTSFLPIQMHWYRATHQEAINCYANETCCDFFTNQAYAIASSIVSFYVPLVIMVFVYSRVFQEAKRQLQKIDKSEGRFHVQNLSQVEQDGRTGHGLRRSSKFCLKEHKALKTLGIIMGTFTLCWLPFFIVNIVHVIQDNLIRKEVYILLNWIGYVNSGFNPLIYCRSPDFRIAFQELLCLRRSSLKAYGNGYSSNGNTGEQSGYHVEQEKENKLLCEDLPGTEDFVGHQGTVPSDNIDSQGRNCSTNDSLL

Row | Structure (SMILES) | pKi
14 | CN(CCCCCCCCCNC[C@H](O)c1ccc(O)c2[nH]c(=O)ccc12)[C@H]1[C@H]2CC[C@@H]1[C@H](OC(=O)C(O)(c1cccs1)c1cccs1)C2 [Example 41, Hydroxy-di-thiophen-2-yl-acetic acid (1S,2R,4S,7S)-7-({9-[(R)-2-hydroxy-2-(8-hydroxy-2-oxo-1,2-dihydro-quinolin-5-yl)-ethylamino]-nonyl}-methyl-amino)-bicyclo[2.2.1]hept-2-yl ester] | > 7.00
